# Values of other authors as cited in patent US20170265459A1, “PROPAGULE COATINGS” (E I DU PONT DE NEMOURS AND COMPANY, priority 2014, published 2017).
row,Structure (SMILES),water solubility at 20° C.
1,"CNC(=O)c1cc(Cl)cc(C)c1NC(=O)c1cc(Br)nn1-c1ncccc1Cl [Chlorantraniliprole, chlorantraniliprole]",about 1 milligram per liter
2,"CNC(=O)c1cc(C#N)cc(C)c1NC(=O)c1cc(Br)nn1-c1ncccc1Cl [Cyantraniliprole, cyantraniliprole]",about 14.2 milligram per liter
